# Test results from patent US20250026769A1, “PAPD5 INHIBITORS AND METHODS OF USE THEREOF” (The Children's Medical Center Corporation, priority 2021, published 2025).
# Target: T1, rPAPD5 (Homo sapiens, UniProt Q8NDF8)
# T1 construct: made in house
# Test: differential scanning fluorimetry (DSF) binding and stabilization of rPAPD5
# Settings: 100 μM test compound; shift vs DMSO control; read-out: ΔTm at 100 μM
# Method: Binding and stabilization of rPAPD5 by test compounds was determined using differential scanning fluorimetry (DSF). DSF assays were performed to determine protein melting temperature using an indicator dye SYPRO orange (Thermo Fisher Scientific, S6651) diluted 1:5000 in […] of buffer containing […], […] (Jena Biosciences), 25 mM Tris-HCl, 5 mM MgCl2, 50 mM KCl. […] DMSO was used as a negative control. Each curve was an average of three measurements and Thermal Shift software (Thermo Fisher Scientific, 4466038) was used for analysis. […] The change in melting temperature (ΔTm) is in reference to the DMSO control. Referring to Table 2, “+” refers to ΔTm values below 1° C., “++” refers to ΔTm values from 1 to 5° C., and “+++” refers to ΔTm values above 5° C.
# T1 sequence (Q8NDF8 68-698 isoform Q8NDF8-5 limits assumed): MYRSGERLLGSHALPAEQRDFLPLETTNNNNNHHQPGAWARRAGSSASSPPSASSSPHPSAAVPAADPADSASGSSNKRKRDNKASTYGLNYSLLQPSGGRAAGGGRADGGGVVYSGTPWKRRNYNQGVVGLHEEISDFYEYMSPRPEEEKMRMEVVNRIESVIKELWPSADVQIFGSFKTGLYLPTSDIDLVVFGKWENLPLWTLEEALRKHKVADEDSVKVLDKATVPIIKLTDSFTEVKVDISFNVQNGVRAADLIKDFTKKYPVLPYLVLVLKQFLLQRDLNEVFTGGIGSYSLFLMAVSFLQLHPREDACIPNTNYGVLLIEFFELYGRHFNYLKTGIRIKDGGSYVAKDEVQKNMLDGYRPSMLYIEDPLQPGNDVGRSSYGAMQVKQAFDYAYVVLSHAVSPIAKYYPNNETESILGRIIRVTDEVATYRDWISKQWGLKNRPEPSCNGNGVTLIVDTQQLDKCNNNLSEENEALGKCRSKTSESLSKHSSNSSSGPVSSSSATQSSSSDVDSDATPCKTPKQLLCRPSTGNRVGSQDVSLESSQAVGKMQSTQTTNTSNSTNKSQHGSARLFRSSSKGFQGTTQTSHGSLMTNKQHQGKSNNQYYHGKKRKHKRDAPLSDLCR
row,ΔTm at 100 µM [°C],SMILES
1,1 to 5,"O=C(O)c1ccccc1Nc1c(-c2cnoc2)cnc2ccc(Cl)cc12 [Compound 212A, 2-[(6-chloro-3-isoxazol-4-yl-4-quinolyl)amino]benzoic acid]"
2,< 1,"O=C(O)c1ccccc1Nc1c(S(=O)(=O)N2CCOCC2)cnc2ccc(NC3CCOCC3)cc12 [Compound 237A, 2-[[3-morpholinosulfonyl-6-(tetrahydropyran-4-ylamino)-4-quinolyl]amino]benzoic acid]"
3,1 to 5,"O=C(O)c1ccccc1Nc1c(S(=O)(=O)N2CCOCC2)cnc2ccc(Nc3ccncc3)cc12 [Compound 240A, 2-[[3-morpholinosulfonyl-6-(4-pyridylamino)-4-quinolyl]amino]benzoic acid]"
4,1 to 5,"O=C(O)c1ccccc1Nc1c(S(=O)(=O)N2CCOCC2)cnc2ccc(NC3CCC(F)(F)CC3)cc12 [Compound 238A, 2-[[6-[(4,4-difluorocyclohexyl)amino]-3-morpholinosulfonyl-4-quinolyl]amino]benzoic acid]"
5,1 to 5,"O=C(O)c1cc(C(O)C(F)(F)F)ccc1Nc1c(S(=O)(=O)N2CCOCC2)cnc2ccc(Cl)cc12 (centres unmarked) [Compound 293A, 2-[(6-chloro-3-morpholinosulfonyl-4-quinolyl)amino]-5-(2,2,2-trifluoro-1-hydroxy-ethyl)benzoic acid]"
6,> 5,"COc1ccc(Nc2c(C3=CCOCC3)cnc3ccc(Cl)cc23)c(C(=O)O)c1 [Compound 308A, 2-[[6-chloro-3-(3,6-dihydro-2H-pyran-4-yl)-4-quinolyl]amino]-5-methoxy-benzoic acid]"
7,1 to 5,"CN1CCC(NS(=O)(=O)c2cnc3ccc(Cl)cc3c2Nc2ccccc2C(=O)O)CC1 [Compound 219A, 2-[[6-chloro-3-[(1-methyl-4-piperidyl)sulfamoyl]-4-quinolyl]amino]benzoic acid]"
8,> 5,"Cc1cccc(C(=O)O)c1Nc1c(S(=O)(=O)N2CCOCC2)cnc2ccc(Cl)cc12 [Compound 283A, 2-[(6-chloro-3-morpholinosulfonyl-4-quinolyl)amino]-3-methyl-benzoic acid]"
9,> 5,"O=C(O)c1ccccc1Nc1c(Br)cnc2ccc(Cl)cc12 [Compound 232A, 2-[(3-bromo-6-chloro-4-quinolyl)amino]benzoic acid]"
10,> 5,"O=C(O)c1ccc(B(O)O)cc1Nc1c(S(=O)(=O)N2CCOCC2)cnc2ccc(Cl)cc12 [Compound 289A, 4-borono-2-[(6-chloro-3-morpholinosulfonyl-4-quinolyl)amino]benzoic acid]"
11,> 5,"O=C(O)c1ccccc1Nc1c(S(=O)(=O)N2CCOCC2)cnc2ccc(O)cc12 [Compound 322A, 2-[(6-hydroxy-3-morpholinosulfonyl-4-quinolyl)amino]benzoic acid]"
12,> 5,"O=C(O)c1ccccc1Nc1c(C2=CCSCC2)cnc2ccc(Cl)cc12 [Compound 299A, 2-[[6-chloro-3-(3,6-dihydro-2H-thiopyran-4-yl)-4-quinolyl]amino]benzoic acid]"
13,> 5,"O=C(O)c1c(Nc2c(S(=O)(=O)N3CCOCC3)cnc3ccc(Cl)cc23)ccc(Cl)c1O [Compound 324A, 3-chloro-6-[(6-chloro-3-morpholinosulfonyl-4-quinolyl)amino]-2-hydroxy-benzoic acid]"
14,1 to 5,"O=C(O)c1ccc(O)cc1Nc1c(S(=O)(=O)N2CCOCC2)cnc2ccc(Cl)cc12 [Compound 273A, 2-[(6-chloro-3-morpholinosulfonyl-4-quinolyl)amino]-4-hydroxy-benzoic acid]"
15,1 to 5,"O=C(O)c1ccccc1Nc1c(C2=CCS(=O)(=O)CC2)cnc2ccc(Cl)cc12 [Compound 208A-INT, 2-[[6-chloro-3-(1,1-dioxo-3,6-dihydro-2H-thiopyran-4-yl)-4-quinolyl]amino]benzoic acid]"
16,> 5,"O=C(O)c1ccccc1Nc1c(C2CCC(F)(F)CC2)cnc2ccc(Cl)cc12 [Compound 205A, 2-[[6-chloro-3-(4,4-difluorocyclohexyl)-4-quinolyl]amino]benzoic acid]"
17,< 1,"O=C(O)c1cccc(C(F)(F)F)c1Nc1c(S(=O)(=O)N2CCOCC2)cnc2ccc(Cl)cc12 [Compound 285A, 2-[(6-chloro-3-morpholinosulfonyl-4-quinolyl)amino]-3-(trifluoromethyl)benzoic acid]"
18,> 5,"O=C(O)c1cc(O)ccc1Nc1c(S(=O)(=O)N2CCOCC2)cnc2ccc(Cl)cc12 [Compound 265A, 2-[(6-chloro-3-morpholinosulfonyl-4-quinolyl)amino]-5-hydroxy-benzoic acid]"
19,< 1,"O=C(O)c1ccc(Nc2c(S(=O)(=O)N3CCOCC3)cnc3ccc(Cl)cc23)c(C(=O)O)c1 [Compound 398A, 4-[(6-chloro-3-morpholinosulfonyl-4-quinolyl)amino]benzene-1,3-dicarboxylic acid]"
20,> 5,"O=C(O)c1cc(F)ccc1Nc1c(-c2ncco2)cnc2ccc(Cl)cc12 [Compound 300A, 2-[(6-chloro-3-oxazol-2-yl-4-quinolyl)amino]-5-fluoro-benzoic acid]"

# Further lines, the compound ahead of its results:
row,SMILES,ΔTm at 100 µM [°C]
1,"CN1CCN(c2ccc(-c3ccc4ncc(S(=O)(=O)N5CCOCC5)c(Nc5ccccc5C(=O)O)c4c3)cc2)CC1 [Compound 180A, 2-[[6-[4-(4-methylpiperazin-1-yl)phenyl]-3-morpholinosulfonyl-4-quinolyl]amino]benzoic acid]",< 1
2,"O=C(O)c1ccccc1Nc1c(S(=O)(=O)N2CCOCC2)cnc2ccc(-c3cncnc3)cc12 [Compound 154A, 2-[(3-morpholinosulfonyl-6-pyrimidin-5-yl-4-quinolyl)amino]benzoic acid]",> 5
3,O=C(O)c1ccccc1Nc1c(S(=O)(=O)N2CCOCC2)cnc2ccc(OC(F)(F)F)cc12 [Compound 131A],> 5
4,"O=C(O)c1ccc(-c2ccc3ncc(S(=O)(=O)N4CCOCC4)c(Nc4ccccc4C(=O)O)c3c2)cc1 [Compound 173A, 2-[[6-(4-carboxyphenyl)-3-morpholinosulfonyl-4-quinolyl]amino]benzoic acid]",1 to 5
5,N=c1cc(C(F)(F)F)c(-c2ccc3ncc(S(=O)(=O)N4CCOCC4)c(Nc4ccccc4C(=O)O)c3c2)c[nH]1 [Compound 143A],1 to 5
6,"O=C1Cc2ccc(-c3ccc4ncc(S(=O)(=O)N5CCOCC5)c(Nc5ccccc5C(=O)O)c4c3)cc2N1 [Compound 170A, 2-[[3-morpholinosulfonyl-6-(2-oxoindolin-6-yl)-4-quinolyl]amino]benzoic acid]",1 to 5
7,O=C(O)c1c(Br)cccc1Nc1c(S(=O)(=O)N2CCOCC2)cnc2ccc(Cl)cc12 [Compound 128A-BR],< 1
8,O=C(O)c1ccccc1Nc1c(S(=O)(=O)N2CCOCC2)cnc2ccc(-c3cc4cc(Cl)ccc4s3)cc12 [Compound 146A-C1],< 0
9,"CS(=O)(=O)Nc1ccc(-c2ccc3ncc(S(=O)(=O)N4CCOCC4)c(Nc4ccccc4C(=O)O)c3c2)cc1 [Compound 179A, 2-[[6-[4-(methanesulfonamido)phenyl]-3-morpholinosulfonyl-4-quinolyl]amino]benzoic acid]",1 to 5
10,CC(C)n1nc(C(F)(F)F)cc1-c1ccc2ncc(S(=O)(=O)N3CCOCC3)c(Nc3ccccc3C(=O)O)c2c1 [Compound 141A],< 1
11,O=C(O)c1ccccc1Nc1c(S(=O)(=O)N2CCNCC2)cnc2ccc(Cl)cc12 [Compound 123A],> 5
12,"O=C(O)c1ccccc1Nc1c(NC2CCS(=O)(=O)CC2)cnc2ccc(Cl)cc12 [Compound 188A, 2-[[6-chloro-3-[(1,1-dioxothian-4-yl)amino]-4-quinolyl]amino]benzoic acid]",> 5
13,"CN(C)c1cncc(-c2ccc3ncc(S(=O)(=O)N4CCOCC4)c(Nc4ccccc4C(=O)O)c3c2)c1 [Compound 152A, 2-[[6-[5-(dimethylamino)-3-pyridyl]-3-morpholinosulfonyl-4-quinolyl]amino]benzoic acid]",1 to 5
14,"O=C(O)c1ccccc1Nc1c(S(=O)(=O)N2CCOCC2)cnc2ccc(-c3ccc(-n4cccn4)cc3)cc12 [Compound 178A, 2-[[3-morpholinosulfonyl-6-(4-pyrazol-1-ylphenyl)-4-quinolyl]amino]benzoic acid]",1 to 5
15,"CN1CCN(c2ccc(-c3ccc4ncc(S(=O)(=O)N5CCOCC5)c(Nc5ccccc5C(=O)O)c4c3)cn2)CC1 [Compound 165A, 2-[[6-[6-(4-methylpiperazin-1-yl)-3-pyridyl]-3-morpholinosulfonyl-4-quinolyl]amino]benzoic acid]",1 to 5
16,C/N=c1/ccc(-c2ccc3ncc(S(=O)(=O)N4CCOCC4)c(Nc4ccccc4C(=O)O)c3c2)c[nH]1 [Compound 151A],1 to 5
17,"CN1CC=C(c2cnc3ccc(Cl)cc3c2Nc2ccccc2C(=O)O)CC1 [Compound 207A-INT, 2-[[6-chloro-3-(1-methyl-3,6-dihydro-2H-pyridin-4-yl)-4-quinolyl]amino]benzoic acid]",> 5
18,"O=C(O)c1ccccc1Nc1c(S(=O)(=O)N2CCOCC2)cnc2ccc(-c3ccc(N4CCCC4)nc3)cc12 [Compound 157A, 2-[[3-morpholinosulfonyl-6-(6-pyrrolidin-1-yl-3-pyridyl)-4-quinolyl]amino]benzoic acid]",< 1
19,Cn1cc(-c2ccc3ncc(S(=O)(=O)N4CCOCC4)c(Nc4ccccc4C(=O)O)c3c2)ccc1=O [Compound 150A],> 5
20,COC(=O)c1ccccc1Nc1c(S(=O)(=O)N2CCOCC2)cnc2ccc(Cl)cc12 [Compound 124A],1 to 5
21,O=C(O)c1ccccc1Nc1c(-c2cnco2)cnc2ccc(Cl)cc12 [Compound 134A],> 5
